Values after ≈ are worked out from the molar mass of the structure shown. Where two headings read alike, the source gives them in different places.
How the values were obtained:
[1] = Solubility assessment, shake-flask method; format: physicochemical; conditions: for solubility: shake-flask; for HCl sol / PBS sol / solubility thermodynamic: supplement CSV
Protocol: Compound solubility was measured at Analiza (Cleveland, OH) by the standard shake-flask method at pH 1.2 and 7.4 and quantitated by HPLC-UV.

[2] = Predicted clearance in human liver microsomes; format: in vitro ADME; conditions: pH 7.4, 1 μM compound, read-out: HLM CLint, pred (converted)
Protocol: Next, microsome stability was profiled in purified human liver microsomes (HLM).
Metabolic stability of compounds was assessed using HLM (Corning cat. 457117).[52] In this assay, 10 nL compounds at a concentration of 1 mM in 100% DMSO are dispensed into 384-well polypropylene plates using the Echo 550 acoustic liquid dispenser (Labcyte). Each plate contains 384 wells with a single test compound in each well.
A solution of HLM at 2 mg/mL in 100 mM K2HPO4/KH2PO4 pH 7.4 with 0.0225 mg/mL Alamethicin from Trichoderma viride (Sigma-Aldrich cat. A4665-10MG) was incubated on ice for 15 min. 5 μL of this solution was added to individual wells following 15 min incubation at room temperature; and supplemented with 5 μL NADPH Regenerating Solution of cofactors (Corning Gentest UGT Reaction Mix solutions A and B, cat. 451200 and 451220) containing 100 mM K2HPO4/KH2PO4 pH 7.4, 2.6 mM NADP^+, 6.6 mM glucose-6-phosphate, 6.6 mM MgCl2, 0.8 U/mL glucose-6-phosphate dehydrogenase, 0.1 mM sodium citrate, and 6.8 mM uridine diphosphate-glucuronic acid. The final concentration of analyte compounds at the beginning of the reactions was 1 μM. The reactions were incubated at 37 °C, and time points of 0, 5, 15, 30, 40, 50, 60, and 70 min were collected for further analysis. Background data were collected using reactions without analyte compounds.
Upon collection of the reaction time points, samples were quenched at the set time points with 30 μL of a solution of 72% acetonitrile, 8% methanol, 0.1% formic acid, 19.9% water, and labetalol as an internal standard (IS) at a concentration of 650 nM. Reaction plates were span in a centrifuge at a speed of 4000 rcf for 30 min and 4 °C, following a dilution of the 10 μL quenched reaction into 40 μL de-ionized water, yielding assay plates.
Samples were analyzed by a solid-phase extraction coupled with a quadrupole time-of-flight mass spectrometer, using an Agilent QToF 6530 RapidFire 360 system with C4 type A solid state cartridges. Analysis was performed in either positive or negative ionization modes. Mobile phases contained 0.1% formic acid in water for loading analytes onto solid state extraction cartridges, and 0.1% formic acid in acetonitrile for elution into the mass spectrometer in positive ionization mode, or 0.1% acetic acid in water for loading and 0.1% acetic acid in acetonitrile for extraction in negative ionization mode. Peak-area ratios of integrated counts for individual compounds to IS were plotted as a semi-logarithmic chart of log versus time. Initial, linear portion of decay was fitted to a linear regression equation to derive the half-time of a compound decay.
Pharmacological parameters for an analyte compound metabolism were calculated using the equations described in Table S2.
Table S2. Pharmacological parameters for an analyte compound metabolism were
calculated using the following equations:
Intrinsic Clearance (in Cl = ln 2
int, in vitro T1/2 ∗ Conc
Intrinsic Clearance Cl = Clint, in vitro ∗ Liver Mass ∗ Yield
Predicted Hepatic Cl = Clint ∗ QH
QH (Hepatic Blood Flow) = 1.3 L/hr/kg

[3] = system: HIV-1 HXB2 Y181C variant; test: MT-4 antiviral cytopathic effect assay, HXB2-Y181C; format: cell-based; conditions: for EC50: Human immunodeficiency virus 1, HXB2, read-out: EC50 Y181C
Protocol: (§1) The prepared compounds were tested for their anti-HIV-1 activity (Table 1). A viral cytopathic effect assay in MT-4 cells with HIV-1 IIIB virus was used to determine compound potency (EC50, 50% cell viability) in protecting virus induced cell killing. Compound cytotoxicity was assessed in MT-4 cells in the absence of virus (CC50, 50% cytotoxicity). […] ETV contains bromo and amino substitutions on the DAPY core. […] Likely, with the smaller cyano arm I in 1, 3, and 5, the cores could be further elaborated to optimize the compound position in the pocket and to improve potency.
(§2) Compounds were tested in a high-throughput 384-well assay format for their ability to inhibit the virus replication-induced cytopathic effect in MT-4 cell cultures acutely infected with HIV-1 (IIIB strain), HXB2, HXB2-K103N, and HXB2-Y181C. Compounds were serially diluted (1:3) in DMSO on 384-well polypropylene plates and further diluted 200-fold into complete RPMI media (10% FBS, 1% P/S) using Biotek Micro Flow and an Agilent ECHO acoustic dispenser. Each plate contained up to eight test compounds, with negative (no drug control) and 5 μM AZT positive controls. MT-4 cells were further diluted in complete RPMI media and added to each plate using a Micro-Flo dispenser. After five days of incubation in a humidified and temperature-controlled incubator (37 °C), Cell Titer Glo (Promega) was added to the assay plates to quantify the amount of […]. EC50 and CC50 values were defined as the compound concentration that causes a 50% decrease in luminescence signal and were calculated using a sigmoidal dose-response model to generate curve fits.

[4] = system: HIV-1 HXB2 K103N variant; test: MT-4 antiviral cytopathic effect assay, HXB2-K103N; format: cell-based; conditions: for EC50: Human immunodeficiency virus 1, HXB2, read-out: EC50 K103N
Protocol: as §1, §2

[5] = Solubility assessment, shake-flask method; format: physicochemical; conditions: compared to the other compounds, in words
[6] = system: HIV-1 HXB2; test: MT-4 antiviral cytopathic effect assay, HXB2 wild-type virus; format: cell-based
Protocol: (§3) The prepared compounds were tested for their anti-HIV-1 activity (Table 1). A viral cytopathic effect assay in MT-4 cells with HIV-1 IIIB virus was used to determine compound potency (EC50, 50% cell viability) in protecting virus induced cell killing. Compound cytotoxicity was assessed in MT-4 cells in the absence of virus (CC50, 50% cytotoxicity).
as §2

[7] = system: HIV-1 (IIIB strain); test: MT-4 antiviral cytopathic effect assay, HIV-1 IIIB; format: cell-based; conditions: HIV-1 IIIB, WT
Protocol: as §3, §2

[8] = MDCK permeability assay (A to B); format: in vitro ADME, Canine; conditions: dog, MDCK
Excerpt: (§4) Compounds were further tested in a Madin–Darby Canine Kidney (MDCK) assay to evaluate their potential for oral absorption. […] Additionally, there was no trend for better permeability when comparing arm I versus arm II when matched with the same core. The size of the B ring had the greatest influence on Papp with the trend being five-membered > six-membered > seven-membered rings (Table 1).
(§5) cMdr1-KO cells were maintained in Dulbecco’s modified Eagle’s medium (DMEM) with sodium pyruvate and GlutaMax, supplemented with 1% Pen/Strep and 10% fetal bovine serum in an incubator set at 37 °C, 90% humidity, and 5% CO2. MDCKII- cMdr1-KO cells were grown to confluence over 3 days on 96-well PET plates with 1 μm pore size, polyester membrane (Corning 3392). Experiments were run using HBSS donor buffer from Invitrogen containing an additional 10 mM HEPES, 15 mM glucose, and 0.1% BSA adjusted to pH 7.4. The receiver well had HBSS buffer supplemented with 1% BSA, 10 mM HEPES, 15 mM glucose, and the pH was adjusted to 7.4. TEER values were read to test membrane integrity at the beginning of the assay. The experiment was started by the addition of dosing solutions containing test compounds. Samples were taken from the donor compartment at 0/120 min and from the receiver compartment at 120 min. Each compound was tested in two separate replicate wells. All samples were immediately collected in a 72:8:20 MeCN/MeOH:H2O mix to precipitate protein and stabilize the test compounds. Cells were dosed on the apical side to determine forward (A to B) permeability. To test for non-specific binding and compound instability, the total amount of drug was quantified at the end of the experiment and compared to the material present in the original dosing solution as a percentage of recovery. Samples were analyzed by RF-QToF.

[9] = in vitro; format: cell-based; conditions: human
Protocol: as §1, §2

[10] = system: E138K; conditions: cell culture; cited from earlier work
[11] = system: MDCKII-cMdr1-KO cells; test: MDCK permeability assay (A to B); format: in vitro ADME, Canine; conditions: in words
Excerpt: as §4, §5

[12] = HCl, pH 1.2, read-out: solubility HCl
[13] = phosphate-buffered saline, pH 7.4, read-out: solubility PBS
[14] = fold change: ratio of potency against HXB2 Y181C and parental HXB2
[15] = supplement CSV, fold change vs HXB2
[16] = fold change: ratio of potency against HXB2 K103N and parental HXB2
[17] = Human immunodeficiency virus 1, MT4, HIV-1 HXB2 wild-type, MT-4 cells, read-out: EC50 HXB2
[18] = Human immunodeficiency virus 1, IIIB, MT4, protects 50% of MT-4 cells against HIV-1-induced cell killing, read-out: EC50 MT4
[19] = protects 50% of MT-4 cells against HIV-1-induced cell killing, read-out: EC50 MT4
[20] = apparent permeability coefficient, A to B, pH 7.4

Compound | solubility [1, 12] [µM] | solubility [1, 13] [µM] | HCl sol [1] [µM] | PBS sol [1] [µM] | CLint scaled at 1.167 h, 1 µM [2] [mL/min/kg] | EC50 [3] [nM] | Y181C (FC) [3, 14] | Y181C (FC) [3, 15] | EC50 [4] [nM] | K103N (FC) [4, 16] | K103N (FC) [4, 15] | EC50 [6, 17] [nM] | EC50 [7, 18] [nM] | EC50 [7, 19] [nM] | Papp A→B at 120 min ([8]; supplement CSV) [×10⁻⁶ cm/s] | Papp A→B at 120 min [8, 20] [×10⁻⁶ cm/s] | CC50 at 120 h [9] [nM] | resistance conferred by E138K [10] | permeability (Papp) in the MDCK assay [11] | further results
Cc1cc(/C=C/C#N)cc(C)c1N1CC(=O)Nc2cnc(Nc3ccc(C#N)cc3)nc21 [Compound 4, 4-[(8-{4-[(1E)-2-Cyanoeth-1-en-1-yl]-2,6-dimethylphenyl}-6-oxo-5,6,7,8-tetrahydropteridin-2-yl)amino]benzonitrile] | 6.5 (≈ 2.74 µg/mL) | 1.8 (≈ 0.759 µg/mL) | 6.5 | 1.8 | 16.3 | 4.9 | 2.0 | 2.0 | 2.8 | 1.2 | 1.2 | 2.4 | 2.6 to 3 | 2.7 | 4.2 | 4.2 | 42400 |  |  | solubility at pH 2 [5]: markedly reduced
Cc1cc(/C=C/C#N)cc(C)c1N1CCC(=O)Nc2cnc(Nc3ccc(C#N)cc3)nc21 [Compound 6, 4-[(9-{4-[(1E)-2-Cyanoeth-1-en-1-yl]-2,6-dimethylphenyl}-6-oxo-5H,6H,7H,8H,9H-pyrimido[4,5-b][1,4]diazepin-2-yl)amino]benzonitrile] | 63.3 (≈ 27.6 µg/mL) | 2.3 (≈ 1 µg/mL) | 63.3 | 2.3 | 12 | 18.3 | 6.5 | 6.5 | 4.8 | 1.7 | 1.7 | 2.8 | 2.6 to 3 | 3 | 3.1 | 3.1 | 25800 |  |  | 
Cc1cc(C#N)cc(C)c1Oc1nc(Nc2ccc(C#N)cc2)nc(N)c1Br [ETV, etravirine, reference compound] | < 1 | < 1 | <1 | <1 | 4.17 | 11.1 | 4.8 | 4.8 | 2.3 | 0.9 | 0.9 |  |  |  | 3.8 | 3.8 | 7300 | 2–3 fold | moderate | EC50 ([6]; Human immunodeficiency virus 1, HXB2, MT4, read-out: EC50 HXB2): 2.5 nM; EC50 ([7]; Human immunodeficiency virus 1, MT4, read-out: EC50 MT4, protects 50% of MT-4 cells against HIV-1-induced cell killing): 2.4 nM
Cc1cc(/C=C/C#N)cc(C)c1Nc1ccnc(Nc2ccc(C#N)cc2)n1 [RPV, rilpivirine, reference compound] | > 100 | < 1 |  |  | 14.3 | 3.8 | 3.2 | 3.2 | 1.5 | 1.3 | 1.3 |  |  |  | 4.6 | 4.6 | 6500 | 2–3 fold | moderate | solubility thermodynamic ([1]; HCl, pH 1.2, read-out: HCl sol): > 100 µM; solubility thermodynamic ([1]; PBS, pH 7.4, aqueous buffer, read-out: PBS sol): < 1 µM

Reference: article PMC10017027, “Design and Synthesis of Novel HIV-1 NNRTIs with Bicyclic Cores and with Improved Physicochemical Properties” (Journal of Medicinal Chemistry, 2023)
